Laboratory results: article PMC12892976, “Alkylation-based optimization of antifungal FPPS inhibitors yields a potent, broad-spectrum lipophilic zoledronate derivative” (mBio, 2025)
In brackets after ≈: the same amount, converted by molar mass.

Experiments:
[1] = system: Candida albicans; test: MIC/MFC broth microdilution (CLSI); format: cell-based; settings: Candida albicans SC5314
Method: (§1) Antifungal susceptibility was determined by broth microdilution according to the CLSI guidelines described in M27-Ed4 ([16]). […] MFC was determined by back-plating drug-treated cultures from MIC broths onto SDA plates. The MFC was defined as the lowest concentration from which no colonies could be cultured.

[2] = system: Trichophyton tonsurans; test: checkerboard drug interaction (FICI, MICc); format: cell-based;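 also: simplified diagonal checkerboard screen combining antifungals with FPPS inhibitors, with FICI calculated under the Loewe additivity model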
Method: (§2) Drug interactions between antifungals and FPPS inhibitors were investigated using a simplified checkerboard diagonal screening method ([45]). […] FICIs were determined according to the Loewe additivity model ([17]).

[3] = system: Cryptococcus neoformans; test: checkerboard drug interaction (FICI, MICc); format: cell-based;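 also: antifungal plus FPPS inhibitor pairs tested against Cryptococcus neoformans by simplified diagonal checkerboard screening, FICI computed under the Loewe additivity model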
Method: as §2

[4] = system: Trichophyton rubrum; test: checkerboard drug interaction (FICI, MICc); format: cell-based;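 also: simplified diagonal checkerboard screen pairing azole antifungals with FPPS inhibitors, FICI calculated under the Loewe additivity model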
Method: as §2

[5] = system: Candida glabrata; test: checkerboard drug interaction (FICI, MICc); format: cell-based;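 also: simplified diagonal checkerboard screen pairing antifungals with FPPS inhibitors, FICI calculated under the Loewe additivity model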
Method: as §2

[6] = system: Aspergillus flavus; test: MIC/MFC broth microdilution (CLSI); settings: ATCC204304
Method: as §1

[7] = system: Microsporum canis; test: checkerboard drug interaction (FICI, MICc); format: cell-based;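 also: simplified diagonal checkerboard screen pairing antifungals with FPPS inhibitors, FICI calculated under the Loewe additivity model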
Method: as §2

[8] = system: Cryptococcus neoformans; test: MIC/MFC broth microdilution (CLSI); settings: for MIC / MEC: Cryptococcus neoformans H99;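 as to all read-outs here: susceptibility testing followed the CLSI M27-Ed4 broth microdilution document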
Method: as §1

[9] = system: Saccharomyces cerevisiae; test: MIC/MFC broth microdilution (CLSI); format: cell-based; settings: Saccharomyces cerevisiae S288c
Method: as §1

[10] = system: Trichophyton rubrum; test: MIC/MFC broth microdilution (CLSI); settings: for MIC / MEC: Trichophyton rubrum R-218
Method: as §1

[11] = system: Saccharomyces cerevisiae; test: checkerboard drug interaction (FICI, MICc); format: cell-based;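 also: simplified diagonal checkerboard screen pairing antifungals with FPPS inhibitors, FICI calculated under the Loewe additivity model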
Method: as §2

[12] = system: Cryptococcus deuterogattii; test: MIC/MFC broth microdilution (CLSI); settings: for MIC / MEC: Cryptococcus deuterogattii R265;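 as to all read-outs here: broth microdilution per CLSI M27-Ed4. MFC is the lowest concentration yielding no colonies when MIC broths are subcultured onto SDA plates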
Method: as §1

[13] = system: Aspergillus flavus; test: checkerboard drug interaction (FICI, MICc); format: cell-based
Method: as §2

[14] = system: Candida albicans; test: checkerboard drug interaction (FICI, MICc); format: cell-based;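 also: antifungal plus FPPS inhibitor combinations on Candida albicans tested by a simplified diagonal checkerboard screen, with FICI calculated under the Loewe additivity model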
Method: as §2

[15] = system: Cryptococcus deuterogattii; test: checkerboard drug interaction (FICI, MICc); format: cell-based;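 also: simplified diagonal checkerboard screen pairing antifungal drugs with FPPS inhibitors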
Method: as §2

[16] = system: Candida glabrata; test: MIC/MFC broth microdilution (CLSI); settings: for MIC / MEC: Candida glabrata CBS138 (ATCC 2001);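 as to all read-outs here: broth microdilution following CLSI M27-Ed4, MFC taken as the lowest drug level yielding no growth once MIC wells were subcultured on SDA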
Method: as §1

[17] = system: Aspergillus fumigatus; test: checkerboard drug interaction (FICI, MICc); format: cell-based;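 also: simplified diagonal checkerboard screen pairing antifungals with FPPS inhibitors against Aspergillus fumigatus, with FICI calculated under the Loewe additivity model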
Method: as §2

[18] = system: Aspergillus fumigatus; test: MIC/MFC broth microdilution (CLSI); settings: ATCC204305
Method: as §1

SMILES: OC(Cn1cncn1)(Cn1cncn1)c1ccc(F)cc1F [FLC, fluconazole]
- MFC [1]: 4 µg/mL (≈ 13.1 µM)
- MIC [1]: 0.5 µg/mL (≈ 1.63 µM)
- MIC / MEC [1]: 0.5 µg/mL (≈ 1.63 µM)
- antifungal MICc ([2]; in combination with 10-ZOL): 2
- antifungal MICc ([2]; in combination with ZOL): 32
- antifungal MICc ([3]; in combination with 10-ZOL): 2
- antifungal MICc ([3]; in combination with ZOL): 4
- antifungal MICc ([4]; in combination with 10-ZOL): 8
- antifungal MICc ([4]; in combination with ZOL): 16
- antifungal MICc ([5]; in combination with 10-ZOL): 1
- antifungal MICc ([5]; in combination with ZOL): 0.25
- MIC [6]: 64 µg/mL (≈ 209 µM)
- antifungal MICc ([7]; in combination with 10-ZOL): 64
- antifungal MICc ([7]; in combination with ZOL): 32
- MIC ([8]; Cryptococcus neoformans): 2 µg/mL (≈ 6.53 µM)
- MIC / MEC [8]: 4 µg/mL (≈ 13.1 µM)
- MFC [9]: 64 µg/mL (≈ 209 µM)
- MIC [9]: 4 µg/mL (≈ 13.1 µM)
- MIC / MEC [9]: 4 µg/mL (≈ 13.1 µM)
- MIC ([10]; Trichophyton rubrum): 64 µg/mL (≈ 209 µM)
- MIC / MEC [10]: 64 µg/mL (≈ 209 µM)
- antifungal MICc ([11]; in combination with 10-ZOL): 1
- antifungal MICc ([11]; in combination with ZOL): 1
- MIC ([12]; Cryptococcus deuterogattii): 2 µg/mL (≈ 6.53 µM)
- MIC / MEC [12]: 4 µg/mL (≈ 13.1 µM)
- antifungal MICc ([13]; in combination with 10-ZOL): 32
- antifungal MICc ([13]; in combination with ZOL): 64
- antifungal MICc ([14]; in combination with 10-ZOL): 1
- antifungal MICc ([14]; in combination with ZOL): 2
- antifungal MICc ([15]; in combination with 10-ZOL): 2
- antifungal MICc ([15]; in combination with ZOL): 4
- MIC / MEC [16]: 4 µg/mL (≈ 13.1 µM)
- MIC ([16]; Nakaseomyces glabratus, CBS138): 4 µg/mL (≈ 13.1 µM)
- effective concentration in combination ([17]; FLC with 10-ZOL added, A. fumigatus): 8 µg/mL
- antifungal MICc ([17]; in combination with 10-ZOL): 8
- antifungal MICc ([17]; in combination with ZOL): 64

SMILES: CC[C@H](C)C[C@H](C)CCCCCCCCC(=O)N[C@H]1C[C@@H](O)[C@@H](NCCN)NC(=O)[C@@H]2[C@@H](O)CCN2C(=O)[C@H]([C@H](O)CCN)NC(=O)[C@H]([C@H](O)[C@@H](O)c2ccc(O)cc2)NC(=O)[C@@H]2C[C@@H](O)CN2C(=O)[C@H]([C@@H](C)O)NC1=O [CAS, caspofungin]
- MIC / MEC [1]: 0.13 µg/mL (≈ 0.119 µM)
- antifungal MICc ([2]; in combination with 10-ZOL): 2
- antifungal MICc ([2]; in combination with ZOL): 0.25
- MIC / MEC [18]: 16 µg/mL (≈ 14.6 µM)
- antifungal MICc ([3]; in combination with 10-ZOL): 2
- antifungal MICc ([3]; in combination with ZOL): 16
- antifungal MICc ([4]; in combination with 10-ZOL): 0.25
- antifungal MICc ([4]; in combination with ZOL): 0.063
- antifungal MICc ([5]; in combination with 10-ZOL): 0.125
- antifungal MICc ([5]; in combination with ZOL): 0.25
- MIC / MEC [6]: 8 µg/mL (≈ 7.32 µM)
- antifungal MICc ([7]; in combination with 10-ZOL): 0.25
- antifungal MICc ([7]; in combination with ZOL): 0.125
- MIC / MEC [8]: 8 µg/mL (≈ 7.32 µM)
- MIC / MEC [9]: 0.5 µg/mL (≈ 0.457 µM)
- MIC / MEC [10]: 0.25 µg/mL (≈ 0.229 µM)
- antifungal MICc ([11]; in combination with 10-ZOL): 0.125
- antifungal MICc ([11]; in combination with ZOL): 0.5
- MIC / MEC [12]: 16 µg/mL (≈ 14.6 µM)
- antifungal MICc ([13]; in combination with 10-ZOL): 2
- antifungal MICc ([13]; in combination with ZOL): 4
- antifungal MICc ([14]; in combination with 10-ZOL): 0.063
- antifungal MICc ([14]; in combination with ZOL): 0.25
- antifungal MICc ([15]; in combination with 10-ZOL): 4
- antifungal MICc ([15]; in combination with ZOL): 16
- MIC / MEC [16]: 0.13 µg/mL (≈ 0.119 µM)
- antifungal MICc ([17]; in combination with 10-ZOL): 8
- antifungal MICc ([17]; in combination with ZOL): 8

SMILES: C[C@@H](c1ncncc1F)[C@](O)(Cn1cncn1)c1ccc(F)cc1F [VOR]
- MIC / MEC [1]: 0.13 µg/mL (≈ 0.372 µM)
- antifungal MICc ([2]; in combination with 10-ZOL): 0.063
- antifungal MICc ([2]; in combination with ZOL): 0.0625
- MIC / MEC [18]: 0.5 µg/mL (≈ 1.43 µM)
- antifungal MICc ([3]; in combination with 10-ZOL): 0.063
- antifungal MICc ([3]; in combination with ZOL): 0.0625
- antifungal MICc ([4]; in combination with 10-ZOL): 0.25
- antifungal MICc ([4]; in combination with ZOL): 0.25
- antifungal MICc ([5]; in combination with 10-ZOL): 0.25
- antifungal MICc ([5]; in combination with ZOL): 0.0625
- MIC / MEC [6]: 0.5 µg/mL (≈ 1.43 µM)
- antifungal MICc ([7]; in combination with 10-ZOL): 0.031
- antifungal MICc ([7]; in combination with ZOL): 0.015
- MIC / MEC [8]: 0.13 µg/mL (≈ 0.372 µM)
- MIC / MEC [9]: 0.5 µg/mL (≈ 1.43 µM)
- MIC / MEC [10]: 1 µg/mL (≈ 2.86 µM)
- antifungal MICc ([11]; in combination with 10-ZOL): 0.25
- antifungal MICc ([11]; in combination with ZOL): 0.25
- MIC / MEC [12]: 0.25 µg/mL (≈ 0.716 µM)
- antifungal MICc ([13]; in combination with 10-ZOL): 0.06
- antifungal MICc ([13]; in combination with ZOL): 0.25
- antifungal MICc ([14]; in combination with 10-ZOL): 0.063
- antifungal MICc ([14]; in combination with ZOL): 0.125
- antifungal MICc ([15]; in combination with 10-ZOL): 0.125
- antifungal MICc ([15]; in combination with ZOL): 0.063
- MIC / MEC [16]: 0.25 µg/mL (≈ 0.716 µM)
- antifungal MICc ([17]; in combination with 10-ZOL): 0.25
- antifungal MICc ([17]; in combination with ZOL): 2

SMILES: C[C@@H]1[C@H](O)[C@@H](C)/C=C/C=C/C=C/C=C/C=C/C=C/C=C/[C@H](O[C@@H]2O[C@H](C)[C@@H](O)[C@H](N)[C@@H]2O)C[C@@H]2O[C@](O)(C[C@@H](O)C[C@@H](O)[C@H](O)CC[C@@H](O)C[C@@H](O)CC(=O)O[C@H]1C)C[C@H](O)[C@H]2C(=O)O [AMB, amphotericin B]
- MIC / MEC [1]: 0.25 µg/mL (≈ 0.271 µM)
- antifungal MICc ([2]; in combination with 10-ZOL): 0.25
- antifungal MICc ([2]; in combination with ZOL): 0.25
- MIC / MEC [18]: 0.25 µg/mL (≈ 0.271 µM)
- antifungal MICc ([3]; in combination with 10-ZOL): 0.5
- antifungal MICc ([3]; in combination with ZOL): 0.5
- antifungal MICc ([4]; in combination with 10-ZOL): 0.5
- antifungal MICc ([4]; in combination with ZOL): 2
- antifungal MICc ([5]; in combination with 10-ZOL): 0.5
- antifungal MICc ([5]; in combination with ZOL): 0.125
- MIC / MEC [6]: 0.5 µg/mL (≈ 0.541 µM)
- antifungal MICc ([7]; in combination with 10-ZOL): 1
- antifungal MICc ([7]; in combination with ZOL): 0.5
- MIC / MEC [8]: 0.25 µg/mL (≈ 0.271 µM)
- MIC / MEC [9]: 0.25 µg/mL (≈ 0.271 µM)
- MIC / MEC [10]: 1 µg/mL (≈ 1.08 µM)
- antifungal MICc ([11]; in combination with 10-ZOL): 0.25
- antifungal MICc ([11]; in combination with ZOL): 0.5
- MIC / MEC [12]: 0.25 µg/mL (≈ 0.271 µM)
- antifungal MICc ([13]; in combination with 10-ZOL): 0.5
- antifungal MICc ([13]; in combination with ZOL): 0.25
- antifungal MICc ([14]; in combination with 10-ZOL): 0.25
- antifungal MICc ([14]; in combination with ZOL): 0.25
- antifungal MICc ([15]; in combination with 10-ZOL): 0.25
- antifungal MICc ([15]; in combination with ZOL): 0.25
- MIC / MEC [16]: 0.25 µg/mL (≈ 0.271 µM)
- antifungal MICc ([17]; in combination with 10-ZOL): 0.125
- antifungal MICc ([17]; in combination with ZOL): 0.25
